We go through 29 compounds from BindingDB's records for doi:10.7270/Q2QZ28D7 (Burnham Center For Chemical Genomics, 2009).

For orientation: IC50 means the concentration needed to halve the response being measured. A higher IC50 goes with weaker potency in that assay.

The target of one assay is his6-Siah1 (aa 81-282) (Homo sapiens, UniProt Q8IUQ4). The experiment in a line: Siah-1 peptide-binding antagonists, primary screen, biochemical, fluorescence polarization, rhodamine-plectin, uHTS (AID 1817).
Sequence of his6-Siah1 (aa 81-282) (Q8IUQ4 whole entry, looked up, the tested form may be a part): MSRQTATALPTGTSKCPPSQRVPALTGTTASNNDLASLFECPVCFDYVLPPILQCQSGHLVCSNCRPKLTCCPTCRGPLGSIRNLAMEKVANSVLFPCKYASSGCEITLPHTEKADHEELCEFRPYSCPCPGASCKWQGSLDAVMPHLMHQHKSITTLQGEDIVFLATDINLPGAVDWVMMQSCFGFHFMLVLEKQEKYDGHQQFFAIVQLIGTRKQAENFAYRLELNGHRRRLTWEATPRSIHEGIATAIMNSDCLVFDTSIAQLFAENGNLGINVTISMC
Settings: not given
A general note: In fluorescence polarisation assays a small probe gives low polarisation when free and higher when bound to something large.
The compound `C[N+]1(CCNC(=O)CN=O)CCCCC1` returned an IC50 of more than 200 µM. On to `CCOC(=O)C1(C)CC(=Nc2ccc(O)cc2)C(=O)N1c1ccc(O)cc1` (centres undefined), for which the 50% inhibitory concentration (IC50) is more than 200 µM.

As to `CC1(C)Cc2c(sc(N=CN3CCCCCC3)c2C#N)C(C)(C)N1`, the IC50 is more than 200 µM.

With `COc1cc(NS(=O)(=O)c2ccc(NC(=S)NC(=O)C=Cc3ccc(F)cc3)cc2)ncn1`, the concentration for half-maximal inhibition (IC50) was more than 200 µM. Still for that read-out and setting: the result for `CN1/C(=C\C=C\C2=[N+](C)c3ccc4ccccc4c3C2(C)C)C(C)(C)c2ccccc21` [1,1,3-trimethyl-2-[(E,3Z)-3-(1,3,3-trimethyl-2-indolylidene)prop-1-enyl]benzo[e]indol-3-ium;perchlorate] reads more than 200 µM; that for `CN(Cc1c(C(=O)NN=Cc2ccc(F)cc2)nnn1-c1nonc1N)C1CCCCC1` [1-(4-amino-1,2,5-oxadiazol-3-yl)-5-[[cyclohexyl(methyl)amino]methyl]-N-[(4-fluorophenyl)methylideneamino]triazole-4-carboxamide], more than 200 µM. For the compound `Fc1ccc(C=NNC(=S)Nc2cccnc2)cc1F` [1-[[3,4-bis(fluoranyl)phenyl]methylideneamino]-3-pyridin-3-yl-thiourea], the half-inhibitory concentration (IC50) was more than 200 µM. On the same count and under the same terms, the result for `CCN(CC)CCOC(=O)c1ccc(N=CC(C#N)c2nc(-c3cc4ccccc4oc3=O)cs2)cc1` (centres undefined) [2-(diethylamino)ethyl 4-[[(Z)-2-cyano-2-[4-(2-oxochromen-3-yl)-1,3-thiazol-2-yl]ethenyl]amino]benzoate] reads 11.2 µM. The compound `CCOC(=O)C1=C(C)N=c2sc(=Cc3ccc(OCC(=O)O)cc3)c(=O)n2C1c1ccc(Cl)cc1` (centres undefined) [2-[4-[[5-(4-chlorophenyl)-6-ethoxycarbonyl-7-methyl-3-oxidanylidene-5H-[1,3]thiazolo[3,2-a]pyrimidin-2-ylidene]methyl]phenoxy]ethanoic acid] came in with an IC50 of more than 200 µM. The same measure, in the same setting: the result for `CCN(CC)c1ccc(C=c2sc3nnc(-c4ccccc4Cl)n3c2=O)cc1` [3-(2-chlorophenyl)-6-[4-(diethylamino)benzylidene][1,3]thiazolo[2,3-c][1,2,4]triazol-5(6H)-one] reads more than 200 µM.

`COC(=O)c1cccc(Cn2c(Cl)c(C=NNC(=O)c3ccccc3Cl)sc2=O)c1` [3-{4-Chloro-5-[(2-chloro-benzoyl)-hydrazonomethyl]-2-oxo-thiazol-3-ylmethyl}-benzoic acid methyl ester] displayed an IC50 of more than 200 µM.

For the compound `O=C(Nc1ccc(Br)cc1)c1ccc(-n2c(O)c3c(c2O)CC=CC3)cc1` [4-[1,3-bis(oxidanylidene)-3a,4,7,7a-tetrahydroisoindol-2-yl]-N-(4-bromophenyl)benzamide], the 50% inhibitory concentration (IC50) was 18.6 µM. `CC(C)(C)c1cc(-c2cs/c(=N\c3ccccc3)n2Cc2ccc(C(=O)O)cc2)cc(C(C)(C)C)c1O` [4-[[4-(3,5-ditert-butyl-4-oxidanyl-phenyl)-2-phenylazanyl-1,3-thiazol-3-ium-3-yl]methyl]benzoic acid;bromide] gave an IC50 of more than 200 µM. `O=C(NN=Cc1cccc(Br)c1)c1ccc(Br)cc1` [4-bromanyl-N-[(3-bromophenyl)methylideneamino]benzamide] registered an IC50 of more than 200 µM.

Compound `COc1ccc(NC2=NC(=O)SC2=Cc2ccc(N(C)C)cc2)cc1` [(5Z)-5-[[4-(dimethylamino)phenyl]methylidene]-4-(4-methoxyanilino)-1,3-thiazol-2-one] registered an IC50 of more than 200 µM. Still for that read-out and setting: the result for `CCOC(=O)C(C#N)=c1sc(=C2C=Cc3ccccc3N2CC)c(=O)n1CC` [MLS000534135] reads more than 200 µM. Still for that read-out and setting: the result for `O=C(NN=Cc1ccc(OC(=O)c2cccs2)cc1)c1cccc(F)c1` [MLS000576933] reads more than 200 µM.

`O=C(O)c1ccc(C=NNC(=O)c2ccc(CN3c4cccc5cccc(c45)S3(=O)=O)cc2)cc1` [MLS001003216] came in with an IC50 of more than 200 µM. Turning to `CC[n+]1c(/C=C/N(C)c2ccccc2)sc2ccc(Cl)cc21` [N-[(E)-2-(5-chloro-3-ethyl-1,3-benzothiazol-3-ium-2-yl)ethenyl]-N-methylaniline;perchlorate], the IC50 is more than 200 µM. The same measure, in the same setting: the result for `CCN(CC)c1ccc(C=NC(C#N)C(=N)C#N)cc1` (centres undefined) [SMR000023871] reads more than 200 µM; that for `Cc1ccc(S(=O)(=O)N[N-][C+]2C3CC4CC(C3)CC2C4)cc1[N+](=O)[O-]` [SMR000241699], more than 200 µM; that for `Cc1cc(C)nc(NN=C2C(=O)N(Cc3ccc(Cl)cc3)c3ccccc32)n1` [SMR000248022], more than 200 µM. For `C=c1c(C#N)c2[nH]c(N)c(C#N)c(C)c-2c1=Cc1ccc(-c2ccccc2C(=O)O)o1` [SMR000277284], the IC50 was 20.6 µM.

`CCN(CC)CCOC(=O)c1ccc(N=CC(C#N)c2nc(-c3ccc(OC)c(OC)c3)cs2)cc1` (centres undefined) [SMR000434079]: the half-inhibitory concentration (IC50) worked out at 12.5 µM. On the same count and under the same terms, the result for `COC(=O)c1cc(NC(=O)c2ccccc2)c(=O)oc1CC=Nc1ccc(Oc2ccccc2)cc1` [methyl 5-benzamido-6-oxidanylidene-2-[(E)-2-[(4-phenoxyphenyl)amino]ethenyl]pyran-3-carboxylate] reads more than 200 µM.

Still in this assay, the particulars now being: inactive by the depositor's call.
`CCCCNc1c2c3c(cccc3n(C)c1=O)C(=O)c1ccccc1-2` [1-Butylamino-3-methyl-3H-naphtho[1,2,3-de]quinoline-2,7-dione] returned an IC50 of 23.1 µM. On the same count and under the same terms, the result for `CC1(C)OC(C)(C)C(=CNc2ccc(O)cc2)C1=O` [4-[(4-hydroxyanilino)methylene]-2,2,5,5-tetramethyldihydro-3(2H)-furanone] reads 48.2 µM.

Biological target in the next assay: not listed separately
The experiment in a line: PubChem AID 1817.
Settings: not given
`CCN1C(=O)C(=CNc2ccc(N3CCOCC3)cc2)C(=O)N(CC)C1=S`: the IC50 was 200 µM.

`O=C1CCCC(=O)C1=NNc1ccc(C(=O)O)cc1` [SMR000370092] had a half-inhibitory concentration (IC50) of 200 µM.
